In the assay the test system is HT29 intrarenal xenograft, nude mice, tumor weight change. In words: NCI In Vivo Anticancer Drug Screen. Data for tumor model HT29;CX-1 Human Adenocarcinoma (MER+) (intrarenal inoculation) in NU/NU BALB/C (nude) mice. The note with it: endpoint: mean tumor weight change, higher = larger tumour. Here is the method: The antitumor activity of compounds was measured in mice bearing transplantable tumors. Survival or tumor size were measured and the results are expressed as the measurement made in the treated group (T) divided by the measurement made in the vehicle treated control group (C). The tumor model used in this assay is HT29;CX-1 Human Adenocarcinoma (MER+) (intrarenal inoculation) in NU/NU BALB/C (nude) mice

Where [1] appears, read: dose: 300.0 mg/kg/injection, schedule: Q04DX004 (sc), vehicle: saline with Tween-80.
[2] abbreviates: dose: 600.0 mg/kg/injection, schedule: Q04DX004 (sc), vehicle: saline with Tween-80.
[3] abbreviates: dose: 1200.0 mg/kg/injection, schedule: Q04DX004 (sc), vehicle: saline with Tween-80.
Where [4] appears, read: dose: 75.0 mg/kg/injection, schedule: Q04DX004 (sc), vehicle: saline.
Where [5] appears, read: dose: 400.0 mg/kg/injection, schedule: Q01DX010 (sc), vehicle: Klucel (hydroxypropylcellulose) (HPC).
Setting [6] is: dose: 800.0 mg/kg/injection, schedule: Q01DX010 (sc), vehicle: Klucel (hydroxypropylcellulose) (HPC).
Where [7] appears, read: dose: 150.0 mg/kg/injection, schedule: Q04DX004 (sc), vehicle: saline with Tween-80.
Setting [8] is: dose: 150.0 mg/kg/injection, schedule: Q04DX004 (sc), vehicle: saline.

Experimental findings from PubChem BioAssay AID208 (DTP/NCI, 2004) are described below.

Each structure is given as a SMILES string. Values joined by “and” are separate entries in the source; they are usually repeats but may differ in a detail not shown here. Identical values can stand only once. Results filed as inconclusive are left out.

With `O=C(Nc1cc(Cl)ccc1C(=O)O)c1cccc(C[n+]2ccccc2)c1`, the T/C reads like this: (dose: 150.0 mg/kg/injection, schedule: Q04DX004 (ip), vehicle: saline with Tween-80) 100 % of control; (dose: 300.0 mg/kg/injection, schedule: Q04DX004 (ip), vehicle: saline with Tween-80) 123 % of control.

As to `CN(C)CCOc1ccc2c(c1)C/C(=C/c1ncc([N+](=O)[O-])n1C)C2=O`, the T/C under setting [1] was 89 % of control; the T/C under setting [2] is 33 % of control; the T/C under setting [3] is 69 % of control; the T/C (dose: 2400.0 mg/kg/injection, schedule: Q04DX004 (sc), vehicle: saline with Tween-80) was 65 % of control.

On to `C=C(C)[C@@H]1CCc2c(O)c(O)c(=O)cc(C)c2C1`, for which, under setting [4], the T/C was 192 % of control.

`CNc1nc(NC)nc(NC)n1`: the T/C is 154 % of control (dose: 12.5 mg/kg/injection, schedule: Q01DX010 (sc), vehicle: Klucel (hydroxypropylcellulose) (HPC)) and 73 % of control (dose: 50.0 mg/kg/injection, schedule: Q01DX010 (sc), vehicle: Klucel (hydroxypropylcellulose) (HPC)).

Turning to `CC(=O)OCC(=O)[C@@]12OC(C)(C)O[C@@H]1C[C@H]1[C@@H]3CC(C=O)=C4C=C(OCCCl)CC[C@]4(C)[C@@]3(F)[C@@H](O)C[C@@]12C`, the T/C (dose: 50.0 mg/kg/injection, schedule: Q04DX004 (sc), vehicle: Klucel (hydroxypropylcellulose) (HPC)) was 101 % of control and the T/C (dose: 100.0 mg/kg/injection, schedule: Q04DX004 (sc), vehicle: Klucel (hydroxypropylcellulose) (HPC)) was 23 % of control.

For `O=C(CN1CCOCC1)Nc1nc(-c2ccc(Cl)cc2)cs1`, the T/C (dose: 50.0 mg/kg/injection, schedule: Q04DX004 (ip), vehicle: saline with Tween-80) is 60 % of control; the T/C (dose: 100.0 mg/kg/injection, schedule: Q04DX004 (ip), vehicle: saline with Tween-80) is 76 % of control; the T/C (dose: 200.0 mg/kg/injection, schedule: Q04DX004 (ip), vehicle: saline with Tween-80) is 73 % of control; the T/C (dose: 400.0 mg/kg/injection, schedule: Q04DX004 (ip), vehicle: saline with Tween-80) was 101 % of control; the T/C (dose: 800.0 mg/kg/injection, schedule: Q04DX004 (ip), vehicle: saline with Tween-80) was 94 % of control.

As to `C=C(NC(=O)C(=C)NC(=O)c1csc(C2=NC3c4csc(n4)C4NC(=O)c5csc(n5)C(C(C)(O)C(C)O)NC(=O)C5CSC(=N5)/C(=C/C)NC(=O)C(C(C)O)NC(=O)c5csc(n5)C3(CC2)NC(=O)C(C)NC(=O)C(=C)NC(=O)C(C)NC(=O)C(C(C)CC)NC2C=Cc3c(C(C)O)cc(nc3C2O)C(=O)OC4C)n1)C(N)=O` (stereo not given), the T/C under setting [5] was 81 % of control; the T/C under setting [6] was 96 % of control; the T/C (dose: 1600.0 mg/kg/injection, schedule: Q01DX010 (sc), vehicle: Klucel (hydroxypropylcellulose) (HPC)) was 44 % of control; the T/C (dose: 2400.0 mg/kg/injection, schedule: Q01DX010 (sc), vehicle: Klucel (hydroxypropylcellulose) (HPC)) was 71 % of control.

Consider `O=P(O)(NCCCl)NCCCl`, for which the T/C reads like this: (dose: 37.5 mg/kg/injection, schedule: Q04DX004 (sc), vehicle: saline) 54 % of control and 61 % of control; under setting [4], 71 % of control and 80 % of control.

For `Nc1ncnc2c1ccn2C1OC(CO)C(O)C1O` (stereo not given), the T/C is, setting by setting: (dose: 2.0 mg/kg/injection, schedule: Q01DX010 (sc), vehicle: Klucel (hydroxypropylcellulose) (HPC)) 96 % of control; (dose: 4.0 mg/kg/injection, schedule: Q01DX010 (sc), vehicle: Klucel (hydroxypropylcellulose) (HPC)) 81 % of control.

For the compound `N=c1c(C(=O)OCc2ccccc2)ncc(CCl)n1O`, the T/C runs as follows: under setting [7], 67 % of control; under setting [1], 58 % of control; under setting [2], 49 % of control; under setting [3], 75 % of control.

Take `CCCCCCCCCCCCCCCCCCOCC(COP(=O)([O-])OCC[N+](C)(C)C)OC` (stereo not given): under setting [8], the T/C is 121 % of control.

`COC(=O)C[C@](O)(CCC(C)(C)O)C(=O)O[C@@H]1C(OC)=C[C@]23CCCN2CCc2cc4c(cc2[C@H]13)OCO4`: the T/C runs as follows: (dose: 0.31 mg/kg/injection, schedule: Q04DX004 (sc), vehicle: saline) 68 % of control; (dose: 0.63 mg/kg/injection, schedule: Q04DX004 (sc), vehicle: saline) 84 % of control; (dose: 1.25 mg/kg/injection, schedule: Q04DX004 (sc), vehicle: saline) 103 % of control; (dose: 2.5 mg/kg/injection, schedule: Q04DX004 (sc), vehicle: saline) 86 % of control.

Turning to `CC(C)CCC(=O)c1ccoc1`, the T/C is 85 % of control (dose: 0.75 mg/kg/injection, schedule: Q01DX010 (ip), vehicle: saline with Tween-80); 87 % of control (dose: 1.5 mg/kg/injection, schedule: Q01DX010 (ip), vehicle: saline with Tween-80); 75 % of control and 91 % of control (dose: 3.0 mg/kg/injection, schedule: Q01DX010 (ip), vehicle: saline with Tween-80); 74 % of control and 94 % of control (dose: 6.0 mg/kg/injection, schedule: Q01DX010 (ip), vehicle: saline with Tween-80).

In the case of `Oc1c(Cl)cc(Cl)cc1C=NCCSc1ccc(Cl)cc1`, the T/C (dose: 600.0 mg/kg/injection, schedule: Q04DX004 (ip), vehicle: Klucel (hydroxypropylcellulose) (HPC)) was 105 % of control and 88 % of control; the T/C (dose: 1200.0 mg/kg/injection, schedule: Q04DX004 (ip), vehicle: Klucel (hydroxypropylcellulose) (HPC)) was 80 % of control.

As for `Nc1nc2c(ncn2C2OC(CO)C(O)C2O)c(=O)[nH]1` (stereo not given), the T/C (dose: 225.0 mg/kg/injection, schedule: Q04DX004 (sc), vehicle: saline with Tween-80) is 84 % of control; the T/C (dose: 450.0 mg/kg/injection, schedule: Q04DX004 (sc), vehicle: saline with Tween-80) is 96 % of control; the T/C (dose: 900.0 mg/kg/injection, schedule: Q04DX004 (sc), vehicle: saline with Tween-80) is 55 % of control; the T/C (dose: 1800.0 mg/kg/injection, schedule: Q04DX004 (sc), vehicle: saline with Tween-80) is 100 % of control.

Consider `Nc1ccc(S(=O)(=O)Nc2cnc3c(Cl)cccc3n2)cc1`, for which, where the note is “dose: 300.0 mg/kg/injection, schedule: Q04DX004 (ip), vehicle: DMSO”, the T/C is 85 % of control.

As for `CCCC(=O)OCc1cc(=O)n(C)c2c3c4c(cc12)c(C)cc(=O)n4CO3`, the T/C was 40 % of control (dose: 100.0 mg/kg/injection, schedule: Q01DX010 (sc), vehicle: Klucel (hydroxypropylcellulose) (HPC)); 43 % of control (dose: 200.0 mg/kg/injection, schedule: Q01DX010 (sc), vehicle: Klucel (hydroxypropylcellulose) (HPC)); 56 % of control under setting [5]; 27 % of control under setting [6].

For `CC1(C)OCC2OC=CC(=O)C2O1` (stereo not given), the T/C under setting [7] is 111 % of control and 89 % of control; the T/C under setting [2] was 82 % of control and 92 % of control.

Take `COc1cccc2c1C(=O)c1c(O)c3c(c(O)c1C2=O)C[C@@](O)(/C(C)=N\O)C[C@@H]3OC1CC(N)C(O)C(C)O1` (stereo not given in full): the T/C was 150 % of control (dose: 12.5 mg/kg/injection, schedule: Q04DX004 (sc), vehicle: saline); 100 % of control (dose: 25.0 mg/kg/injection, schedule: Q04DX004 (sc), vehicle: saline); 103 % of control (dose: 50.0 mg/kg/injection, schedule: Q04DX004 (sc), vehicle: saline).

Consider `BrCCC1(CCBr)CCCCC1`, for which the T/C reads like this: (dose: 300.0 mg/kg/injection, schedule: Q04DX004 (sc), vehicle: water) 97 % of control; (dose: 600.0 mg/kg/injection, schedule: Q04DX004 (sc), vehicle: water) 77 % of control; (dose: 1200.0 mg/kg/injection, schedule: Q04DX004 (sc), vehicle: water) 58 % of control; (dose: 2400.0 mg/kg/injection, schedule: Q04DX004 (sc), vehicle: water) 76 % of control.

As for `COc1cc(Cc2nccc3cc(OC)c(OC)cc23)c(C(C)=O)cc1OC`, the T/C was 86 % of control under setting [4]; 84 % of control under setting [8]; 55 % of control (dose: 300.0 mg/kg/injection, schedule: Q04DX004 (sc), vehicle: saline); 33 % of control (dose: 600.0 mg/kg/injection, schedule: Q04DX004 (sc), vehicle: saline).

With `CC12CCC3C(CCC4CC(OC(=O)Cc5ccc(N(CCCl)CCCl)cc5)CCC43C)C1CCC(=O)N2` (stereo not given), the T/C is, setting by setting: (dose: 12.5 mg/kg/injection, schedule: Q04DX004 (sc), vehicle: saline with Tween-80) 99 % of control; (dose: 25.0 mg/kg/injection, schedule: Q04DX004 (sc), vehicle: saline with Tween-80) 109 % of control; (dose: 50.0 mg/kg/injection, schedule: Q04DX004 (sc), vehicle: saline with Tween-80) 77 % of control; (dose: 100.0 mg/kg/injection, schedule: Q04DX004 (sc), vehicle: saline with Tween-80) 38 % of control.
